Measurements taken from patent US20230416225A1, “DIAMINOPYRIMIDINE CARBOXAMIDE INHIBITORS OF HPK1” (MERCK SHARP & DOHME LLC, priority 2020, published 2023).
pIC50: −log10 of the molar value.

target: T1, Human HPK1, catalytic domain (Homo sapiens, UniProt Q92918); assay: HPK1-SLP76 TR-FRET assay; format: biochemical; conditions: 75 pM HPK1, 10 uM ATP, 10 nM SLP76, 30 min compound pre-incubation
T1 construct: purchased Carna
T1 sequence (Q92918 1-346): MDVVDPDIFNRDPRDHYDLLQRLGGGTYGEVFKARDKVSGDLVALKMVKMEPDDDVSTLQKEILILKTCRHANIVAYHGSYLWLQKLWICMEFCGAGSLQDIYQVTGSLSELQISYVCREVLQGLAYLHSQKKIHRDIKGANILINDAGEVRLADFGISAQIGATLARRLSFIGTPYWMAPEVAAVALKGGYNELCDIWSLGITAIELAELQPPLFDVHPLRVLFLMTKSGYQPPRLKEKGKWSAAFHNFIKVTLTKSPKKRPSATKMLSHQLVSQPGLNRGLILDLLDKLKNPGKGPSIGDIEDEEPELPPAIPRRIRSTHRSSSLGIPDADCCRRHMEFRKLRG

SMILES	pIC50
COc1cc2c(cc1Nc1ncc(C(N)=O)c(Nc3c(Cl)ccc(C)c3F)n1)CN(C)CC2 [Example 4-20, 4-[(6-chloro-2-fluoro-3-methylphenyl)amino]-2-[(6-methoxy-2-methyl-1,2,3,4-tetrahydroisoquinolin-7-yl)amino]pyrimidine-5-carboxamide]	9.68
COc1cc2c(cc1Nc1ncc(C(N)=O)c(Nc3c(F)cc(F)cc3Cl)n1)CN(C)CC2 [Example 4-21, 4-[(2-chloro-4,6-difluorophenyl)amino]-2-[(6-methoxy-2-methyl-1,2,3,4-tetrahydroisoquinolin-7-yl)amino]pyrimidine-5-carboxamide]	9.35
Cc1cccc(F)c1Nc1nc(Nc2cnn(CC3CC3)c2)ncc1C(N)=O [Example 4-22, 2-{[1-(cyclopropylmethyl)-1H-pyrazol-4-yl]amino}-4-[(2-fluoro-6-methylphenyl)amino] pyrimidine-5-carboxamide]	6.42
Cc1cccc(F)c1Nc1nc(Nc2cnn(CC(C)(C)O)c2)ncc1C(N)=O [Example 4-23, 4-[(2-fluoro-6-methylphenyl)amino]-2-{[1-(2-hydroxy-2-methylpropyl)-1H-pyrazol-4-yl]amino}pyrimidine-5-carboxamide]	6.35
Cc1cccc(F)c1Nc1nc(Nc2cnn(CC(F)(F)F)c2)ncc1C(N)=O [Example 4-24, 4-[(2-fluoro-6-methylphenyl)amino]-2-{[1-(2,2,2-trifluoroethyl)-1H-pyrazol-4-yl]amino}pyrimidine-5-carboxamide]	6.23
Cc1cccc(F)c1Nc1nc(Nc2ccc(S(C)(=O)=O)cc2)ncc1C(N)=O [Example 4-25, 4-[(2-fluoro-6-methylphenyl)amino]-2-{[4-(methylsulfonyl)phenyl]amino} pyrimidine-5-carboxamide]	7.09
COc1cc2c(cc1Nc1ncc(C(N)=O)c(Nc3ccccc3C3CC3)n1)CN(C)CC2 [Example 4-26, 4-[(2-cyclopropylphenyl)amino]-2-[(6-methoxy-2-methyl-1,2,3,4-tetrahydroisoquinolin-7-yl)amino]pyrimidine-5-carboxamide]	9.77
CCc1ccccc1Nc1nc(Nc2cc3c(cc2OC)CCN(C)C3)ncc1C(N)=O [Example 4-27]	10.10
CN1CCc2cc(F)c(Nc3ncc(C(N)=O)c(Nc4c(F)cccc4C(F)(F)F)n3)cc2C1 [Example 4-29, 2-[(6-fluoro-2-methyl-1,2,3,4-tetrahydroisoquinolin-7-yl)amino]-4-{[2-fluoro-6-(trifluoromethyl)phenyl]amino} pyrimidine-5-carboxamide]	9.70
COc1cc2c(cc1Nc1ncc(C(N)=O)c(Nc3c(F)cc(Br)cc3F)n1)CN(C)CC2 [Example 4-30, 4-[(4-bromo-2,6-difluorophenyl)amino]-2-[(6-methoxy-2-methyl-1,2,3,4-tetrahydroisoquinolin-7-yl)amino]pyrimidine-5-carboxamide]	9.38
COc1cc2c(cc1Nc1ncc(C(N)=O)c(Nc3c(F)cccc3OC(F)F)n1)CN(C)CC2 [Example 4-31, 4-{[2-(difluoromethoxy)-6-fluorophenyl]amino}-2-1(6-methoxy-2-methyl-1,2,3,4-tetrahydroisoquinolin-7-yl)amino|pyrimidine-5-carboxamide]	9.70
CN1CCc2cc(F)c(Nc3ncc(C(N)=O)c(Nc4cccc5c4OC(C)(C)C5)n3)cc2C1 [Example 4-32, 4-[(2,2-dimethyl-2,3-dihydro-1-benzofuran-7-yl)amino]-2-[(6-fluoro-2-methyl-1,2,3,4-tetrahydroisoquinolin-7-yl)amino]pyrimidine-5-carboxamide]	8.95
COc1cc2c(cc1Nc1ncc(C(N)=O)c(Nc3c(C)cc(C#N)cc3F)n1)CN(C)CC2 [Example 4-33, 4-[(4-cyano-2-fluoro-6-methylphenyl)amino]-2-[(6-methoxy-2-methyl-1,2,3,4-tetrahydroisoquinolin-7-yl)amino]pyrimidine-5-carboxamide]	9.36
Cc1cccc(F)c1Nc1nc(Nc2c(C)n[nH]c2C)ncc1C(N)=O [Example 4-34, 2-[(3,5-dimethyl-1H-pyrazol-4-yl)amino]-4-[(2-fluoro-6-methylphenyl)amino] pyrimidine-5-carboxamide]	7.19
Cc1cccc(F)c1Nc1nc(Nc2cnn(C)c2)ncc1C(N)=O [Example 4-35, 4-[(2-fluoro-6-methylphenyl)amino]-2-[(1-methyl-1H-pyrazol-4-yl)amino]pyrimidine-5-carboxamide]	6.80
COc1cc2c(cc1Nc1ncc(C(N)=O)c(Nc3c(F)cccc3C(F)(F)F)n1)CN(CC(C)(C)O)CC2 [Example 5-1, 4-((2-Fluoro-6-(trifluoromethyl)phenyl)amino)-2-((2-(2-hydroxy-2-methylpropyl)-6-methoxy-1,2,3,4-tetrahydroisoquinolin-7-yl)amino)pyrimidine-5-carboxamide]	8.53

SMILES	pIC50
COc1cc2c(cc1Nc1ncc(C(N)=O)c(Nc3c(C)cccc3F)n1)CN(CC(C)(C)O)CC2 [Example 5-2]	8.60
CS(=O)(=O)c1ccc(Nc2ncc(C(N)=O)c(Nc3cccc4c3CCNC4)n2)cc1 [Example 7-1, 2-{[4-(methylsulfonyl)phenyl]amino}-4-[(1,2,3,4-tetrahydroisoquinolin-5-yl)amino]pyrimidine-5-carboxamide]	9.18
COc1cc2c(cc1Nc1ncc(C(N)=O)c(Nc3ccccc3N3C(=O)OC[C@@H]3C)n1)CN(C)CC2 [Example 7-2, 2-[(6-methoxy-2-methyl-1,2,3,4-tetrahydroisoquinolin-7-yl)amino]-4-({2-[(4S)-4-methyl-2-oxo-1,3-oxazolidin-3-yl]phenyl}amino)pyrimidine-5-carboxamide]	9.82
COc1cc2c(cc1Nc1ncc(C(N)=O)c(Nc3cccc4c3CCNC4)n1)CN(C)CC2 [Example 7-4, 2-[(6-methoxy-2-methyl-1,2,3,4-tetrahydroisoquinolin-7-yl)amino]-4-[(1,2,3,4-tetrahydroisoquinolin-5-yl)amino]pyrimidine-5-carboxamide]	10.15
COc1cc2c(cc1Nc1ncc(C(N)=O)c(Nc3cccc4nn[nH]c34)n1)CN(C)CC2 [Example 7-5, 4-[(1H-benzotriazol-7-yl)amino]-2-[(6-methoxy-2-methyl-1,2,3,4-tetrahydroisoquinolin-7-yl)amino]pyrimidine-5-carboxamide]	9.30
COc1cc2c(cc1Nc1ncc(C(N)=O)c(Nc3cccc4nnc(C)cc34)n1)CN(C)CC2 [Example 7-6, 2-[(6-methoxy-2-methyl-1,2,3,4-tetrahydroisoquinolin-7-yl)amino]-4-[(3-methylcinnolin-5-yl)amino]pyrimidine-5-carboxamide]	7.15
COc1cc2c(cc1Nc1ncc(C(N)=O)c(Nc3cccc4c3OCC4)n1)CN(C)CC2 [Example 7-7, 4-[(2,3-dihydro-1-benzofuran-7-yl)amino]-2-[(6-methoxy-2-methyl-1,2,3,4-tetrahydroisoquinolin-7-yl)amino]pyrimidine-5-carboxamide]	10.52
NC(=O)c1cnc(Nc2cnn(CC3CC3)c2)nc1Nc1cccc2c1CCNC2 [Example 7-8, 2-{[1-(cyclopropylmethyl)-1H-pyrazol-4-yl]amino}-4-[(1,2,3,4-tetrahydroisoquinolin-5-yl)amino]pyrimidine-5-carboxamide]	8.83
COc1nn(C)cc1Nc1ncc(C(N)=O)c(Nc2cccc3c2CCNC3)n1 [Example 7-9, 2-[(3-methoxy-1-methyl-1H-pyrazol-4-yl)amino]-4-[(1,2,3,4-tetrahydroisoquinolin-5-yl)amino]pyrimidine-5-carboxamide]	8.93
COc1cc(N2CCNCC2)ccc1Nc1ncc(C(N)=O)c(Nc2ccccc2Br)n1 [Example 7-10, 4-[(2-bromophenyl)amino]-2-{[2-methoxy-4-(piperazin-1-yl)phenyl]amino}pyrimidine-5-carboxamide]	7.47
Cn1cc(Nc2ncc(C(N)=O)c(Nc3cccc4c3CCNC4)n2)c(=O)[nH]1 [Example 7-11, 2-[(1-methyl-3-oxo-2,3-dihydro-1H-pyrazol-4-yl)amino]-4-[(1,2,3,4-tetrahydroisoquinolin-5-yl)amino]pyrimidine-5-carboxamide]	6.96
Cn1cc(Nc2ncc(C(N)=O)c(Nc3cccc4c3CCNC4)n2)cn1 [Example 7-12, 2-[(1-methyl-1H-pyrazol-4-yl)amino]-4-[(1,2,3,4-tetrahydroisoquinolin-5-yl)amino]pyrimidine-5-carboxamide]	8.73
COc1cc2c(cc1Nc1ncc(C(N)=O)c(Nc3cccc4c3OC(C)(C)C4)n1)CN(C)CC2 [Example 7-14, 4-[(2,2-dimethyl-2,3-dihydro-1-benzofuran-7-yl)amino]-2-[(6-methoxy-2-methyl-1,2,3,4-tetrahydroisoquinolin-7-yl)amino]pyrimidine-5-carboxamide]	9.72
N#CC1(c2ccc(Nc3ncc(C(N)=O)c(Nc4cccc5c4CCNC5)n3)cc2)CC1 [Example 7-15, 2-{[4-(1-cyanocyclopropyl)phenyl]amino}-4-[(1,2,3,4-tetrahydroisoquinolin-5-yl)amino]pyrimidine-5-carboxamide]	9.89
NC(=O)c1cnc(Nc2ccc3c(c2)COCC3)nc1Nc1cccc2c1CCNC2 [Example 7-16, 2-[(3,4-dihydro-1H-2-benzopyran-7-yl)amino]-4-[(1,2,3,4-tetrahydroisoquinolin-5-yl)amino]pyrimidine-5-carboxamide]	9.85
COc1cc2c(cc1Nc1ncc(C(N)=O)c(Nc3cccc(F)c3)n1)CN(C)CC2 [Example 7-18, 4-[(3-fluorophenyl)amino]-2-[(6-methoxy-2-methyl-1,2,3,4-tetrahydroisoquinolin-7-yl)amino]pyrimidine-5-carboxamide]	9.54
